Measured values as given in PMC12735945, “Synthetic Linear Lipopeptides and Lipopeptoids Induce Apoptosis and Oxidative Stress: In Vitro Cytotoxicity and SAR Evaluation Against Cancer Cell Lines” (Pharmaceuticals, 2025).
Where two headings read alike, the source gives them in different places. Starred links: 1 amine or outer side, 2 acyl side, 3 side chain; linkers in the order of their positions; H or OH if unused. Positions of bridges follow the written chain, without caps; N, C: chain ends. Non-standard residues stand in square brackets, D forms with d. Residues, ends and D or L forms follow the SMILES beside them. *: point of attachment. X1 = CC(C)CCCCCCCCC[C@H](CC(=O)[*:1])O[*:2]; Heptadecanoyl = CCCCCCCCCCCCCCCCC(=O)*; Stearoyl = CCCCCCCCCCCCCCCCCC(=O)*; Myristoyl = CCCCCCCCCCCCCC(=O)*; Boc = CC(C)(C)OC(=O)*; Nlys = NCCCCNCC(=O)O

Tests used:
[1] = tested on: HeLa (human cervical adenocarcinoma) cells; type: cell-based; details: 72 h
Description: (§1) The MTT and CV assays were employed for initial cytotoxicity screening and determination of half-maximal inhibitory concentrations (IC50), as described previously. Cells were seeded in 96-well plates and incubated for 24 h prior to treatment. B16F10, HT-29, HeLa, and NIH3T3 cells were seeded at a density of 2000 cells per well, while PC3 cells were seeded at 6000 cells per well due to their slower proliferation rate. For fast screening, cancer cells were treated with two concentrations of each LLP (0.1 µM and 10 µM) for 72 h in triplicate, with four replicates in each experiment. […] Digitonin was used as a positive control in all assays. Following treatment, absorbance was measured using a microplate reader (SpectraMax, Molecular Devices, San Jose, CA, USA) at 540 nm, with a reference wavelength of 670 nm. Cell viability was calculated as a percentage of untreated control wells.

[2] = tested on: HT-29 (human colon adenocarcinoma) cells; type: cell-based; details: 72 h
Description: as §1

[3] = tested on: B16F10 (mouse skin melanoma) cells; type: cell-based; details: 72 h
Description: as §1

[4] = tested on: PC3 (human prostate cancer) cells; type: cell-based; details: 72 h
Description: as §1

[5] = tested on: HeLa (human cervical adenocarcinoma) cells; type: cell-based; details: 72 h; remark: listed apart in the source
Description: as §1

[6] = tested on: PC3 (human prostate cancer) cells; type: cell-based; details: 72 h; remark: listed apart in the source
Description: as §1

[7] = tested on: HT-29 (human colon adenocarcinoma) cells; type: cell-based; details: 72 h; remark: listed apart in the source
Description: as §1

B16F10 cells [8] = test: ROS/RNS production (DHR staining, flow cytometry); type: cell-based, mouse; details: B16F10, IC50 concentration, 72 h, versus untreated control
Description: (§2) To assess intracellular ROS/RNS levels, B16F10 cells were first stained with 1 µM DHR for 10 min at 37 °C. Following staining, cells were treated with LLPs 17, 53 or 58 at their IC50 concentrations for 72 h. After treatment, cells were trypsinized, washed with PBS, and analyzed by flow cytometry to quantify DHR fluorescence, indicative of ROS/RNS production. For NO detection, B16F10 cells were treated under identical conditions using the same LLP concentrations. After 72 h, cells were incubated with 5 µM DAF-FM diacetate in RPMI 1640 supplemented with 10% FCS for 1 h at 37 °C. The stain was then deactivated by incubation for 15 min with a serum-free medium. Finally, cells were detached, washed with PBS, and subjected to flow cytometric analysis to assess intracellular NO levels.

B16F10 cells [9] = test: Cell cycle analysis (DAPI staining, flow cytometry); type: cell-based, mouse; details: 72 h
Description: B16F10 cells were seeded overnight in 6-well plates at a density of 1 × 10^5 cells per well and treated for 72 h with selected active LLPs either at the IC50 or 2 × IC50 concentration. Following treatment, both floating and adherent cells were collected, washed with PBS, and fixed in 70% ethanol at 4 °C overnight. Fixed cells were stained with DAPI staining solution (1 µg/mL) for 30 min at 37 °C in the dark, followed by PBS washing to remove excess dye. Flow cytometric analysis was performed using a FACSAria III instrument (BD Biosciences, Eysins, Switzerland). Histograms of cell counts versus fluorescence intensity were generated and cell cycle distribution was determined based on mean fluorescence intensity values.

[10] = tested on: B16F10 (mouse skin melanoma) cells; type: cell-based; details: 72 h; remark: listed apart in the source
Description: as §1

caspases in B16F10 cells = test: ApoStat caspase detection assay; type: cell-based, mouse; details: B16F10, IC50 concentration, 72 h
Description: B16F10 cells were seeded in 6-well plates at a density of 1 × 10^5 cells per well and treated for 72 h with IC50 concentrations of selected active LLPs. Post-treatment, cells were harvested and washed with PBS. Cells were then stained with 100 μL of working ApoStat solution, prepared by diluting ApoStat reagent (FITC-VAD-FMK) in PBS containing 5% FCS (99 μL of PBS 5% FCS + 1 μL ApoStat per sample). The staining was performed for 30 min at 37 °C in the dark. Following incubation, cells were washed to remove unbound reagents and analyzed by flow cytometry using a FACSAria III system (BD Biosciences). The fluorescence intensity of FITC was measured to assess caspase production, with increased fluorescence indicating elevated caspase activity.

B16F10 cells [11] = test: NO production (DAF-FM staining, flow cytometry); type: cell-based, mouse; details: B16F10, IC50 concentration, 72 h
Description: as §2

B16F10 cells [12] = test: CFSE-based cell proliferation assay; parameters: species or system mouse; details: B16F10, IC50 concentration, 72 h
Description: B16F10 cells were stained with 1 µM carboxyfluorescein succinimidyl ester (CFSE) for 10 min at 37 °C, followed by treatment with compounds 17, 53, or 57 at IC50 concentrations for 72 h. After incubation, cells were washed, trypsinized, and analyzed by flow cytometry to assess cell division based on CFSE fluorescence intensity.

B16F10 cells [13] = test: Apoptosis by Annexin V-FITC/PI staining; type: cell-based, mouse; details: B16F10, IC50 concentration, 72 h
Description: B16F10 melanoma cells were seeded in 6-well plates at a density of 1 × 10^5 cells/well and incubated overnight to allow for cell adherence. […] Following treatment, both floating and adherent cells were harvested and washed with PBS. The cells were then resuspended in 100 μL of Annexin V binding buffer containing 5 μL of Annexin V-FITC and 2 μL of PI per sample. Staining was performed for 15 min at 37 °C in the dark. After staining, cells were washed with PBS and analyzed using a BD FACSAria III flow cytometer (BD Biosciences) to quantify the percentages of apoptotic cells.

[14] = tested on: B16F10 (mouse skin melanoma) cells; details: CV assay, 72 h; mean ± SD; cited from earlier work
Description: Table 1 IC50 value (µM) for cytotoxic LLPs (72 h, CV assay). Data represent mean ± SD from three independent biological experiments, each performed with eight technical replicates per concentration. | column: B16F10

[15] = tested on: NIH3T3 mouse embryonic fibroblasts; type: cell-based; details: 72 h
Description: as §1

[16] = tested on: HeLa (human cervical adenocarcinoma) cells; details: CV assay, 72 h; mean ± SD; cited from earlier work
Description: Table 1 IC50 value (µM) for cytotoxic LLPs (72 h, CV assay). Data represent mean ± SD from three independent biological experiments, each performed with eight technical replicates per concentration. | column: HeLa

[17] = MTT assay, mean ± SD of three independent biological experiments, read-out: IC50 B16F10
[18] = B16F10, double IC50 concentration
[19] = MTT assay, mean ± SD of three independent biological experiments, read-out: IC50 HeLa

Structure (SMILES)	IC50 [1] [µM]	IC50 [2] [µM]	IC50 [5] [µM]	IC50 [7] [µM]	ROS/RNS production (B16F10 cells [8])	cells in the sub-G1 phase (B16F10 cells [9]; B16F10, IC50 concentration)	cells in the sub-G1 phase (B16F10 cells [9]; [18])	IC50 [10] [µM]	caspase activation (ApoStat fluorescence) (caspases in B16F10 cells)	NO production (B16F10 cells [11])	IC50 [3] [µM]	IC50 [5, 19] [µM]	cell division profile (CFSE) (B16F10 cells [12])	proportion of apoptotic cells (B16F10 cells [13])	also measured
CCCCCCCCCCCCCCCC(=O)N(CCCCCCNC(=O)OC(C)(C)C)CC(=O)NCC(=O)N(CCCCCCNC(=O)OC(C)(C)C)CC(=O)NCC(=O)OC [Compound 3]	6.6 ± 0.3	6.5 ± 0.6	6.4 ± 0.9	6.2 ± 0.2											IC50 [3, 17]: 6.1 ± 0.1 µM; IC50 [4]: 5.9 ± 0.1 µM; IC50 [6]: 6.1 ± 0.2 µM
CCCCCCCCCCCCCC(=O)N(CCNC(=O)OC(C)(C)C)CC(=O)NCC(=O)N(CCNC(=O)OC(C)(C)C)CC(=O)NCC(=O)OC [Compound 17]		4 ± 0.6		4.1 ± 0.8	moderate ROS/RNS generation	approximately 20%	50–60%	5.6 ± 0.4	gradual enhancement in the fluorescence signal	increased NO production	5.7 ± 0.3	5.6 ± 0.3	notably reduced the proportion of cells undergoing successive divisions	approximately 15%	IC50 [4]: 4 ± 0.3 µM; IC50 [6]: 4.1 ± 0.6 µM
CCCCCCCCCCCCCCCCC(=O)N(CCCCNC(=O)OC(C)(C)C)CC(=O)NCC(=O)N(CCCCNC(=O)OC(C)(C)C)CC(=O)NCC(=O)OC [Compound 45] (Heptadecanoyl-[Nlys](Boc)G[Nlys](Boc)G-OMe)	7.9 ± 0.6	7.5 ± 0.1	8 ± 0.5	7.8 ± 0.9											IC50 [3, 17]: 8 ± 0.2 µM
CCCCCCCCCCCCCCCCCC(=O)N(CCCCNC(=O)OC(C)(C)C)CC(=O)NCC(=O)N(CCCCNC(=O)OC(C)(C)C)CC(=O)NCC(=O)OC [Compound 46] (Stearoyl-[Nlys](Boc)G[Nlys](Boc)G-OMe)	8 ± 0.4		8.2 ± 0.3					8 ± 0.9			8.1 ± 0.1				
CCCCCCCCCCCCCC(=O)N(CCCCNC(=O)OC(C)(C)C)CC(=O)NCC(=O)N(CCCCNC(=O)OC(C)(C)C)CC(=O)NCC(=O)OC [Compound 47] (Myristoyl-[Nlys](Boc)G[Nlys](Boc)G-OMe)												12.3 ± 0.8			
CCCCCCCCCCCCCCCC(=O)N(CCc1ccc(O)cc1)CC(=O)NCC(=O)OC [Compound 53]					only slightly enhanced	approximately 20%	50–60%	7.7 ± 0.3	gradual enhancement in the fluorescence signal	only a slight increase	8 ± 0.2		notably reduced the proportion of cells undergoing successive divisions	approximately 15%	
CCCCCCCCCCCCCCCC(=O)N(CCCCN=[N+]=[N-])CC(=O)NCC(=O)N(CCCCN=[N+]=[N-])CC(=O)NCC(=O)OC [Compound 55]												15.4 ± 0.4			
CCCCCCCCCCCCCCCCCCC(=O)N(CCCCN=[N+]=[N-])CC(=O)NCC(=O)N(CCCCN=[N+]=[N-])CC(=O)NCC(=O)OC [Compound 58]	7.7 ± 0.2	8.7 ± 0.3	7.8 ± 0.3	9.1 ± 0.2	marked increase	approximately 20%	50–60%	7.4 ± 0.1	clearer caspase activation was detected	increased NO production	7.5 ± 0.2		notably reduced the proportion of cells undergoing successive divisions	approximately 15%	
CCCCCCCCCCCCCCCCCCCC(=O)N(CCCCN=[N+]=[N-])CC(=O)NCC(=O)N(CCCCN=[N+]=[N-])CC(=O)NCC(=O)OC [Compound 59]								11.1 ± 1.2			11.5 ± 1.3				
CC(C)CCCCCCCCC[C@@H]1CC(=O)N[C@@H](CCC(=O)O)C(=O)N[C@@H](CC(C)C)C(=O)N[C@H](CC(C)C)C(=O)N[C@@H](C(C)C)C(=O)N[C@@H](CC(=O)O)C(=O)N[C@H](CC(C)C)C(=O)N[C@@H](CC(C)C)C(=O)O1 [Surfactin, surfactin, reference compound] (EL[dL]VD[dL]L; linker N-C via X1 (inferred))			64.9 ± 0.8								50.3 ± 0.6				IC50 [14]: 40.4 ± 0.3 µM; NIH3T3 cell viability [15]: approximately 25%; IC50 [16]: 76.2 ± 1.6 µM
